Results: patent publication US11622967B2 (SUVEN LIFE SCIENCES LIMITED, priority 2018, dated 2023)
Where a name gives a salt, the structure may show the parent alone.

Experiments:
[1] = target: histamine-3 receptor (in-vivo) (Rattus norvegicus (Rat), UniProt Q9QYN8); assay: (R)-α-methylhistamine induced dipsogenia assay; conditions: rats, oral, RAMH 2.5 mg/kg s.c.
Experimental: The experiment consisted of 3 days. The animals were individually housed in their home cages. 24 h water consumption was recorded for 2 days. Rats were randomized according to average of 2 days water consumption. […] Statistical analysis: Data was compared and assessed by one-way ANOVA followed by Dunnett's post hoc test by using graph pad prism software package.

male Wistar rats = assay: Sleep and wake profile by telemetric EEG in male Wistar rats; format: in vivo, rat; conditions: 10 and 30 mg/kg, p.o., first 4 hours post dosing (FIG. 2)
Excerpt: (§1) Rats were anesthetized with isoflurane (Baxter India Private Limited; 4% in oxygen for induction; 2% for maintenance) and were fixed into the stereotaxic frame (Stoelting, Ill., USA) to perform surgery. An incision was made to reveal bregma from which coordinates were taken. Telemetric transmitter (Model F40-EET; DSI, St. Paul, Minn., USA) was implanted into intraperitoneal cavity of the rat and leads were tunneled subcutaneously to head. One pair of electrodes were implanted epidurally into the frontal cortex region using stainless steel screws (CMA Microdialysis, Stockholm, Sweden) at coordinates of AP+2.0 mm, ML±2.2 mm (Paxinos and Watson, 2004) for recording of EEG and electrodes were fixed to the skull with dental acrylic cement (DENTALON® plus). The second set of lead wires was implanted into the neck nuchal muscle to record electromyogram (EMG). Incision was closed using non absorbable sutures. After a surgical recovery of minimum 2 weeks, animals were acclimatized to the handling procedures and were given a mock dosing for 3 days before the first experimental day.
On the day of study, transmitter was switched on using magnet and animals were transferred on to the receiver along with the home cage. […]
(§2) Statistical analysis: EEG data was scored with automated standard sleep scoring protocols using Neuroscore. […]

male C57BL/6J mice = assay: Sleep and wake profile by telemetric EEG in male C57BL/6J mice; format: in vivo, mouse; conditions: 10 and 30 mg/kg, p.o., first 4 hours post dosing (FIG. 3)
Excerpt: Mice were anesthetized with isoflurane (Baxter India Private Limited; 4% in oxygen for induction; 2% for maintenance) and were fixed into the stereotaxic frame (Stoelting, Ill., USA) to perform surgery. An incision was made to reveal bregma from which coordinates were taken. Telemetric transmitter (Model F20-EET; DSI, St. Paul, Minn., USA) was implanted into intraperitoneal cavity of the […] and leads were tunneled subcutaneously to head. One pair of flexible spring electrodes were implanted epidurally into the frontal cortex region at coordinates of AP+1.0 mm, ML±2.0 mm (Franklin and Paxinos, 20074) for recording of EEG and electrodes were fixed to the skull with dental acrylic cement (DENTALON® plus). The second set of lead wires was implanted into the neck nuchal muscle to record EMG. Incision was closed using non absorbable sutures. After a surgical recovery of minimum 2 weeks, animals were acclimatized to the handling procedures and were given a mock dosing for 3 days before the first experimental day.
On the day of study, transmitter was switched on using magnet and animals were transferred on to the receiver along with the home cage. Recording was started 3 h after the lights-on using Ponemah (Version 5.2) software. […] Recording was continued for 6 h post treatment. […]
as §2

[2] = system: orexin-B-saporin lesioned male Wistar rats; assay: Sleep and wake profile by telemetric EEG in orexin-B-saporin lesioned rats (narcolepsy model); format: in vivo, rat
Experimental: Rats were anesthetized with 4% isoflurane (Baxter India Private Limited) and maintained on 2% isoflurane for entire duration of surgery. Under isoflurane anesthesia, rats were placed into a stereotaxic instrument and received bilateral microinjections of 0.5 μL containing 490 ng of orexin-B-saporin conjugate (Advanced Targeting System, San Diego, Calif., USA) or saline solution in the lateral hypothalamus (coordinates: AP: −3.5 mm; ML: ±1.5 mm; DV: −8.7 mm).^3 Microinjections were performed using a glass micropipette (20 μm at the tip). Analgesic and antibiotic treatment were administered at the end of this procedure.
as §1, with “After injection of” for “Rats were anesthetized with isoflurane (Baxter India Private Limited; 4% in oxygen for induction; 2% for maintenance) and were fixed into”, “orexin-B-Saporin, telemetric” for “stereotaxic frame (Stoelting, Ill., USA) to perform surgery. An incision was made to reveal bregma from which coordinates were taken. Telemetric”, “2004)^3” for “2004)”, “EMG.” for “electromyogram (EMG).”, “about 3” for “minimum 2”
On the day of study, transmitter was switched on using magnet and animals were transferred on to the receiver along with the home cage. Recording was started 1 h before lights-off using Ponemah (Version 5.2) software. […] Recording was continued for 8 h post treatment. EEG and EMG were collected as primary signals and sampled at 500 Hz. Whereas, temperature and activity were sampled at 250 Hz. The data was stored for off-line analysis using NeuroScore software (Version 3.0).
Statistical analysis: EEG data was scored with automated standard sleep scoring protocols using Neuroscore. Rodent EEG and EMG data was manually classified into one of three sleep/wake states: awake, REM (Rapid eye movement/Paradoxical sleep), or NREM (Non-rapid eye movement/slow wave sleep) according to visual analysis of EEG frequency and amplitude characteristics and EMG activity using 10 s epochs. Waking activity was defined as relatively low-amplitude EEG activity with low power in the low-frequency bands, accompanied by moderate to high level EMG activity. NREM was defined as generally high-amplitude EEG activity with greater power in the low-frequency bands from 0.5-4 Hz, accompanied by minimal EMG activity. REM sleep was characterized by moderate and constant amplitude EEG activity focused in the θ (6-9 Hz) range with no (or only sporadic) EMG activity. […]

[3] = system: cortical histamine levels; assay: Histamine modulation in prefrontal cortex, microdialysis; format: in vivo, rat
Excerpt: (§3) Male Wistar rats (240-300 g body weight) were stereotaxically implanted with a microdialysis guide cannula in prefrontal cortex (PFC; AP: +3.2 mm, ML: −0.5 mm, DV: −1.0 mm) under isoflurane anesthesia. Co-ordinates were taken according to atlas for the rat brain (Paxinos and Watson 2004) with reference points taken from bregma and vertical from the skull. The rats were allowed to recover individually for four days in a round bottom Plexiglas bowl with free access to feed and water.
(§4) After surgical recovery of 4 days, male Wistar rats were connected to dual quartz lined two-channel liquid swivel (Instech, UK) on a counter balance lever arm, which allowed unrestricted movements of the animal. […]
Quantitation of histamine: Histamine concentrations in dialysates were quantified using post-column derivatization with o-phthalaldehyde employing HPLC coupled to fluorescence detector and analysis was carried out in the calibration range of 33-640 fmol/20 μL
(§5) Statistical analysis: All microdialysis data for histamine was plotted as percent change from mean dialysate basal concentrations with 100% defined as the average of five pre-dose values. […] Area under the curve (AUC) values for percent change in histamine levels were calculated and the statistical significance between the mean AUC value were compared against vehicle treatment using one-way ANOVA followed by Dunnett's test. […]

[4] = system: cortical levels of dopamine and norepinephrine; assay: Dopamine and norepinephrine modulation in prefrontal cortex, microdialysis; format: in vivo, rat; conditions: male Wistar rats, 3-30 mg/kg, p.o. (FIG. 7)
Excerpt: as §3, §4
Quantitation of dopamine and norepinephrine: Monoamines in dialysate were derivatized with dansyl chloride and quantified using LC-MS/MS based method in calibration ranges of 0.07-15 nmol/L for all […] analytes.
as §5, with “dopamine and norepinephrine were” for “histamine was”, “four” for “five”, “neurotransmitter” for “histamine”

Sequence of histamine-3 receptor (in-vivo) (Q9QYN8 whole entry): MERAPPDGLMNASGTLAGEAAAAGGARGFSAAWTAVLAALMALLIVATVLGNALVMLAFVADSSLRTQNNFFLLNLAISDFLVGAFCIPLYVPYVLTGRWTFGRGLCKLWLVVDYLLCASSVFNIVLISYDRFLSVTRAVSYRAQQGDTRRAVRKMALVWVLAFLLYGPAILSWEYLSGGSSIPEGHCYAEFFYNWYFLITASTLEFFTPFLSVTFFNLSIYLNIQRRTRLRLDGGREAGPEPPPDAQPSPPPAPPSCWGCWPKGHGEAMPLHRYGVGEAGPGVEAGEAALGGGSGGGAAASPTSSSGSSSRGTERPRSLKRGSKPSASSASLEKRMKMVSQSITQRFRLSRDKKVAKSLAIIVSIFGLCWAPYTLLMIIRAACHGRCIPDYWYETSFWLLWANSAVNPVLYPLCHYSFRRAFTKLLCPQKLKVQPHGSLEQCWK

SMILES: O=C(CN1CCOCC1)Nc1ccc(OC2CCN(C3CCC3)CC2)cc1 [SUVN-G3031, N-[4-(1-Cyclobutylpiperidin-4-yloxy)phenyl]-2-(morpholin-4-yl)acetamidedihydrochloride]
- effect on (R)-α-methylhistamine induced dipsogenia (water consumption) ([1]; at 60 min (FIG. 1a)): blocked
- effect on (R)-α-methylhistamine induced dipsogenia (water consumption) ([1]; at 120 min (FIG. 1b)): blocked
- time spent in wake period compared to vehicle (male Wistar rats): significantly increased
- time spent in wake period compared to vehicle (male C57BL/6J mice): significant increase
- cataplectic (direct transition of wake to REM) episodes ([2]; orexin-B-saporin lesioned rats (FIG. 5)): decreased
- wake period compared to vehicle ([2]; orexin-B-saporin lesioned rats, first 4 hours post dosing (FIG. 4a)): significant increase
- REM sleep ([2]; orexin-B-saporin lesioned rats, first 4 hours post dosing (FIG. 4b)): significant decrease
- NREM sleep ([2]; orexin-B-saporin lesioned rats, first 4 hours post dosing (FIG. 4c)): no effect
- mean AUC of percent change in histamine levels compared to vehicle ([3]; male Wistar rats, 0.3, 1 and 10 mg/kg, p.o. (FIG. 6)): statistically significant
- cortical histamine levels ([3]; male Wistar rats, 0.3-10 mg/kg, p.o.): significant increase
- cortical levels of dopamine [4]: significant increase
- cortical levels of norepinephrine [4]: significant increase
